Assay results reported in patent US20100168176A1, “NOVEL COMPOUNDS, PHARMACEUTICAL COMPOSITIONS CONTAINING SAME, AND METHODS OF USE FOR SAME” (FASGEN LLC, priority 2006, published 2010).
Converted amounts (≈) assume the structure as drawn.

Assays:
[1] = tested on: MCF-7 human breast cancer cells; test: XTT cytotoxicity assay, MCF-7 (M); format: cell-based; conditions: (M) or no code, MCF-7, 72 hours; for IC50: Homo sapiens, MCF7
Description: The XTT assay is a non-radioactive alternative for the [^51Cr] release cytotoxicity assay. XTT is a tetrazolium salt that is reduced to a formazan dye only by metabolically active, viable cells. The reduction of XTT is measured spectrophotometrically as OD490-OD650.
To measure the cytotoxicity of specific compounds against cancer cells, 9×10^3 MCF-7 human breast cancer cells, obtained from the American Type Culture Collection are plated per well in 96 well plates in DMEM medium with 10% fetal bovine serum, insulin, penicillin, and streptomycin. Following overnight culture at 37° C. and 5% CO2, the compounds to be tested, dissolved in DMSO, are added to the wells in 1 μl volume at the following concentrations: 80, 40, 20, 10, 5, 2.5, 1.25, and 0.625 μg/ml in triplicate. Additional concentrations are tested if required. 1 μl of DMSO is added to triplicate wells are the vehicle control. C75 is run at 40, 20, 10, […], 10, and 5 in triplicate as positive controls.
After 72 hours of incubation, cells are incubated for 4 hours with the XTT reagent as per manufacturer's instructions (Cell Proliferation Kit II (XTT) Roche). Plates are read at OD490 and OD650 on a Molecular Devices SpectraMax Plus Spectrophotometer. Three wells containing the XTT reagent without cells serve as the plate blank. XTT data are reported as OD490-OD650. Averages and standard error of the mean are computed using SOFTmax Pro software ([…]).
The IC50 for the compounds is defined as the concentration of drug leading to a 50% reduction in OD400-OD650 compared to controls. The OD400-OD650 are computed by the SOFTmax PRO software (Molecular Devices) for each compound concentration. IC50 is calculated by linear regression, plotting the FAS activity as percent of control versus drug concentrations. Linear regression, best-fit line, r^2, and 95% confidence intervals are determined using Prism Version 3.0 (Graph Pad Software).

FAO = FAO SC 150 / FAO Max; conditions: for FAO Max: at the concentration given under E18
OV = test: XTT cytotoxicity assay, OV; format: cell-based
[2] = tested on: MCF-7 human breast cancer cells; test: [14C]acetate incorporation into total lipids; format: cell-based; conditions: MCF7
Description: Measurement of [^14 C]acetate Incorporation into Total Lipids and Determination of IC50 of Compounds
This assay measures the incorporation of [^14C]acetate into total lipids and is a measure of fatty acid synthesis pathway activity in vitro. It is utilized to measure inhibition of fatty acid synthesis in vitro.
MCF-7 human breast cancer cells cultured as above, are plated at 5×10^4 cells per well in 24-well plates. Following overnight incubation, the compounds to be tested, solubilized in DMSO, are added at 5, 10, and 20 μg/ml in triplicate, with lower concentrations tested if necessary. DMSO is added to triplicate wells for a vehicle control. C75 is run at 5 and 10 μg/ml in triplicate as positive controls. After 4 hours of incubation, 0.25 μCi of [^14C]acetate (10 μl volume) is added to each well.
After 2 hours of additional incubation, medium is aspirated from the wells and 800 μl of chloroform:methanol (2:1) and 700 μl of 4 mM MgCl2 is added to each well. Contents of each well are transferred to 1.5 Eppendorf tubes, and spun at full-speed for 2 minutes in a high-speed Eppendorf Microcentrifuge 5415D. After removal of the aqueous (upper) layer, an additional 700 μl of chloroform:methanol (2:1) and 500 μl of 4 mM MgCl2 are added to each tube and then centrifuged for 1 minutes as above. The aqueous layer is removed with a Pasteur pipette and discarded. An additional 400 μl of chloroform:methanol (2:1) and 200 μl of 4 mM MgCl2 are added to each tube, then centrifuged and aqueous layer is discarded. The lower (organic) phase is transferred into a scintillation vial and dried at 40° C. under N2 gas. Once dried, 3 ml of scintillant (APB #NBC5104) is added and vials are counted for ^14C. The Beckman Scintillation counter calculates the average cpm values for triplicates.
The IC50 for the compounds is defined as the concentration of drug leading to a 50% reduction in [^14C]acetate incorporation into lipids compared to controls. This is determined by plotting the average cpm for each inhibitor concentration tested, performing linear regression and computing the best-fit line, r^2 values, and 95% confidence intervals. The average cpm values are computed by the Beckman scintillation counter (Model LS6500) for each compound concentration. Computation of linear regression, best-fit line, r^2, and 95% confidence intervals are calculated using Prism Version 3.0 (Graph Pad Software).

[3] = Weight loss screen in Balb/C mice; format: in vivo; conditions: 60 mg/kg intraperitoneally
Description: Weight Loss Screen for Novel FAS Inhibitors
Balb/C mice (Jackson Labs) are utilized for the initial weight loss screening. Animals are housed in temperature and 12 hour day/night cycle rooms and fed mouse chow and water ad lib. Three mice are utilized for each compound tested with vehicle controls in triplicate per experiment. For the experiments, mice are housed separately for each compound tested three mice to a cage. Compounds are diluted in DMSO at 10 mg/ml and mice are injected intraperitoneally with 60 mg/kg in approximately 100 μl of DMSO or with vehicle alone. Mice are observed and weighed daily; average weights and standard errors are computed with Excel (Microsoft). The experiment continues until treated animals reach their pretreatment weights.

H = test: Crystal violet cell growth assay, H; format: cell-based; conditions: read-out: Cr. Violet (IC50)
Description: Crystal Violet Cell Growth Assay
The crystal violet assay measure cell growth but not cytotoxicity. This assay employs crystal violet staining of fixed cells in 96-well plates with subsequent solubilization and measurement of OD490 on a spectrophotometer. The OD490 corresponds to cell growth per unit time measured. Cells are treated with the compounds of interest or vehicle controls and IC50 for each compound is computed.
To measure the cytotoxicity of specific compounds against cancer cells, 5×10^4 MCF-7 human breast cancer cells, obtained from the American Type Culture Collection are plated per well in 24 well plates in DMEM medium with 10% fetal bovine serum, penicillin, and streptomycin. Following overnight culture at 37° C. and 5% CO2, the compounds to be tested, dissolved in DMSO, are added to the wells in 1 μl volume at the following concentrations: 50, 40, 30, 20, and 10 μg/ml in triplicate. Additional concentrations are tested if required. 1 μl of DMSO is added to triplicate wells are the vehicle control. C75 is run at 10, and 5 μg/ml in triplicate as positive controls.
After 72 hours of incubation, cells are stained with 0.5 ml of Crystal Violet stain (0.5% in 25% methanol) in each well. After 10 minutes, wells are rinsed, air dried, and then solubilized with 0.5 ml 10% sodium dodecylsulfate with shaking for 2 hours. Following transfer of 100 μl from each well to a 96-well plate, plates are read at OD490 on a Molecular Devices SpectraMax Plus Spectrophotometer Average OD490 values are computed using SOFTmax Pro Software (Molecular Devices) and IC50 values are determined by linear regression analysis using Prism version 3.02 (Graph Pad Software, San Diego).

Raji cells = conditions: cited from earlier work
[4] = biological target: rat liver acyl-CoA synthetase; conditions: rat liver enzyme; read-out: 50% inhibition of rat liver acyl-CoA synthetase; cited from earlier work
viral HIV protease = viral HIV protease (Human immunodeficiency virus type 1 group M subtype B, UniProt P04585); conditions: cited from earlier work
[5] = tested on: Mycobacterium tuberculosis; conditions: in vitro; cited from earlier work
purified human FAS = biological target: T1, purified human FAS (Homo sapiens, UniProt P49327); test: FAS enzymatic activity (malonyl-CoA dependent NADPH oxidation, OD340); format: biochemical; conditions: purified human FAS from ZR-75-1 cells
T1 construct: Human FAS was purified from cultured ZR-75-1 human breast cancer cells; endogenous in cells; host or cells: ZR-75-1 human breast cancer cells (ATCC); Purified by hypotonic lysis, PEG precipitations and Mono Q anion exchange
Description: Purification of FAS from ZR-75-1 Human Breast Cancer Cells.
Human FAS was purified from cultured ZR-75-1 human breast cancer cells obtained from the American Type Culture Collection. The procedure, adapted from Linn et al., 1981, and Kuhajda et al., 1994, utilizes hypotonic lysis, successive polyethyleneglycol (PEG) precipitations, and anion exchange chromatography. ZR-75-1 cells are cultured at 37° C. with 5% CO2 in RPMI culture medium with 10% fetal bovine serum, penicillin and streptomycin.
Ten T150 flasks of confluent cells are lysed with 1.5 ml lysis buffer (20 mM Tris-HCl, pH 7.5, 1 mM EDTA, 0.1 mM phenylmethanesulfonyl fluoride (PMSF), 0.1% Igepal CA-630) and dounce homogenized on ice for 20 strokes. The lysate is centrifuged in JA-20 rotor (Beckman) at 20,000 rpm for 30 minutes at 4° C. and the supernatant is brought to 42 ml with lysis buffer. A solution of 50% PEG 8000 in lysis buffer is added slowly to the supernatant to a final concentration of 7.5%. After rocking for 60 minutes at 4° C., the solution is centrifuged in JA-20 rotor (Beckman) at 15,000 rpm for 30 minutes at 4° C. Solid PEG 8000 is then added to the supernatant to a final concentration of 15%. After the rocking and centrifugation is repeated as above, the pellet is resuspended overnight at 4° C. in 10 ml of Buffer A (20 mM K2HPO4, pH 7.4). […] FAS protein concentration is determined using the Coomassie Plus Protein Assay Reagent (Pierce) according to manufacturer's specifications using BSA as a standard. […]
FAS activity is measured by monitoring the malonyl-CoA dependent oxidation of NADPH spectrophotometrically at OD340 in 96-well plates (Dils et al and Arslanian et al, 1975). […]
The assay is performed on a Molecular Devices SpectraMax Plus Spectrophotometer. […] Using the kinetic protocol, the wells are blanked on duplicate wells containing 100 μl of 100 mM K2HPO4, pH 6.5 and the plate is read at OD340 at 10 sec intervals for 5 minutes to measure any malonyl-CoA independent oxidation of NADPH. […] The plate is read again as above with the kinetic protocol to measure the malonyl-CoA dependent NADPH oxidation. […]

T1 sequence (P49327 whole entry): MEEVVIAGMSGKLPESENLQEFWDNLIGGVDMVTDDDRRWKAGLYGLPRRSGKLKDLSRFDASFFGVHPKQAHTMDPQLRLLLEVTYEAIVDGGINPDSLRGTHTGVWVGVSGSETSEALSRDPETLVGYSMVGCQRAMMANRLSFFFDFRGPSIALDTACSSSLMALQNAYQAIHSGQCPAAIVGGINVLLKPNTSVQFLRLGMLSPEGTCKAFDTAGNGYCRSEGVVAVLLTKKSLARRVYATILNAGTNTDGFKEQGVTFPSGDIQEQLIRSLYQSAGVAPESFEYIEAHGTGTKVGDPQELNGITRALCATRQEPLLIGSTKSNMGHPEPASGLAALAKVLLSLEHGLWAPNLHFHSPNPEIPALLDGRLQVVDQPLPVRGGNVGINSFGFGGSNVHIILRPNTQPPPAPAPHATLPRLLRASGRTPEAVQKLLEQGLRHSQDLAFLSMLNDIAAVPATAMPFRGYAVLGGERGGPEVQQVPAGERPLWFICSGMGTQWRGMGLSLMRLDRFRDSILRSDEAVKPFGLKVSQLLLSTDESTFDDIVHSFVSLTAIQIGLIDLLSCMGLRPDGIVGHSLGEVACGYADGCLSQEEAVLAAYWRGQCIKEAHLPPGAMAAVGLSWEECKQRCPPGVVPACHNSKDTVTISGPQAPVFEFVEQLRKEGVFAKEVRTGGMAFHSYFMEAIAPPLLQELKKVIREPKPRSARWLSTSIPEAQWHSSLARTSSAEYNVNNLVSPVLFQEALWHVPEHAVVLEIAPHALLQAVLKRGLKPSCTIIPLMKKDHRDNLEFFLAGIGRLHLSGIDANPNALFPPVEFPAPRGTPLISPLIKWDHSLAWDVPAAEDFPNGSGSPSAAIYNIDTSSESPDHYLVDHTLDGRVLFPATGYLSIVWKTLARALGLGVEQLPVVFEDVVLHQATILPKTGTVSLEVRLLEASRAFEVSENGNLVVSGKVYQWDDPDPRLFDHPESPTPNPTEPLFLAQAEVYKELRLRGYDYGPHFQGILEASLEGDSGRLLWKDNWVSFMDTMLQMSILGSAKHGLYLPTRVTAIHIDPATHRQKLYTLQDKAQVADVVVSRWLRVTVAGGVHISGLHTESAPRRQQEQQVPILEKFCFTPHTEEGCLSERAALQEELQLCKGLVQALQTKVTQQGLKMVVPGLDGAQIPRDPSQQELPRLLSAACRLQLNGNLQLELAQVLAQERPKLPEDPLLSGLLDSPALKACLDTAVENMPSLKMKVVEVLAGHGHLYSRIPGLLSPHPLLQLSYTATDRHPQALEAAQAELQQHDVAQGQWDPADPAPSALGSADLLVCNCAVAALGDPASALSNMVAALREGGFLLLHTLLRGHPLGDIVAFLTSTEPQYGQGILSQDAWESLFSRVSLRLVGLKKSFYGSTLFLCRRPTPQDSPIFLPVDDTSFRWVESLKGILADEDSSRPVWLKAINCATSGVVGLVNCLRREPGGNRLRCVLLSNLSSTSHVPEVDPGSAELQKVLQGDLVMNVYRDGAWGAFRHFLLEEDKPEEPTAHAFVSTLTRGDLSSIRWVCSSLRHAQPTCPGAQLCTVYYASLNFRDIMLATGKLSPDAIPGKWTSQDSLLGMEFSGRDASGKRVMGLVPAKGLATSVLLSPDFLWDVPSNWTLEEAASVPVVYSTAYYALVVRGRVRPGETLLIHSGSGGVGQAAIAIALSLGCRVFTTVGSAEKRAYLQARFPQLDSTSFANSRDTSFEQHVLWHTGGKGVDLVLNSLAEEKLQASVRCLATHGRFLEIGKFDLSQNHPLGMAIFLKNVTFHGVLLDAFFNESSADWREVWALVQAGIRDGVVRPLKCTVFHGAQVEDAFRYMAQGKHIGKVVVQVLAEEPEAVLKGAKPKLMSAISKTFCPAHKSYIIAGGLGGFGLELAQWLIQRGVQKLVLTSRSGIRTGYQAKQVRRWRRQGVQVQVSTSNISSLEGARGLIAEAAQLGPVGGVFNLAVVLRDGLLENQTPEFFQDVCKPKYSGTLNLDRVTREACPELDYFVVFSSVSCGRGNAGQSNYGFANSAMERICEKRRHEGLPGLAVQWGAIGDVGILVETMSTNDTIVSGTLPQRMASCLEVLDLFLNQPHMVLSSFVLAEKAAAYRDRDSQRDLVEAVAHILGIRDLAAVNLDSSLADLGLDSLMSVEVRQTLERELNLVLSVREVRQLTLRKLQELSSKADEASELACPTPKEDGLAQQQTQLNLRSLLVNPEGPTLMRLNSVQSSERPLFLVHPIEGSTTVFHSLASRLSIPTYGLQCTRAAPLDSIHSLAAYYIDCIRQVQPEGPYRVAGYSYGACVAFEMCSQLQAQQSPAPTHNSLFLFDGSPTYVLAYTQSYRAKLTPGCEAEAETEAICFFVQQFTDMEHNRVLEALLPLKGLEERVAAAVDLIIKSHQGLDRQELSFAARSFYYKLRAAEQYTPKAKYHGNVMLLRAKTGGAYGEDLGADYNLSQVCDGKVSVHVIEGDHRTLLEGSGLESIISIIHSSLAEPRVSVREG

Compound	IC50 [1] [µg/mL]	FAO Max: concentration at which the maximum was seen (FAO)	FAO SC 150 (FAO)	FAO Max (FAO)	IC50 (OV) [µg/mL]	IC50 [2] [µg/mL]	IC50 (H) [µg/mL]	further results
CCCCCCCCC1(C)SC(=O)C=C1OCC(=O)NNc1ccc(C(F)(F)F)cc1 (centres unmarked) [Compound 12, (5-Methyl-5-octyl-2-oxo-thiophen-4-yloxy)-acetic-acid-N′-(4-trifluoromethylphenyl)-hydrazide]	5.7 (≈ 12.4 µM)	1.56 μg/ml ug/ml	Neg	118% at	9.6 (≈ 20.9 µM)	11.3 (≈ 24.6 µM)	4.8 (≈ 10.5 µM)	Weight Loss ([3]; day 2): 60 mg/kg: 2.7% (day 2)
CCCCCCCCC1(C)SC(=O)C=C1OCC(=O)NNc1cc(C(F)(F)F)ccc1Cl (centres unmarked) [Compound 16, (5-Methyl-5-octyl-2-oxo-thiophen-4-yloxy)-acetic-acid-N′-[2-chloro-5-(trifluoromethyl)phenyl]-hydrazide]	6 (≈ 12.2 µM)	6.25 µg/mL	Neg	137% @	7.2 (≈ 14.6 µM)	16.5 (≈ 33.5 µM)	5.8 (≈ 11.8 µM)	Weight Loss ([3]; day 3): 60 mg/kg: 1.7 % (day 3)
CCCC=CCC=CC=CC=NN=NO [Triacsin C, 1-hydroxy-3-(E, E, E-2′,4′,7′-undecatrienylidine) triazene]								growth inhibition in Raji cells at (Raji cells): 1.0 µM; IC50 [4]: 8.7 µM
C/C=C/C/C=C/CCC(=O)[C@H]1O[C@H]1C(N)=O [cerulenin, (2S,3R)-2,3-epoxy-4-oxo-7,10 dodecadienoyl amide]								inhibition of viral HIV protease at (viral HIV protease): 5 mg/mL; activity against Mycobacterium tuberculosis [5]: no activity was found
(5-Methyl-5-hexyl-2-oxo-thiophen-4-yloxy)-acetic-acid-M-(4-chlorophenyl)-hydrazide [Compound 21]		0.024 μg/ml ug/ml	Neg	104% at				XTT (IC50) [1]: 9.8 μg/ml (M) ug/ml; XTT (IC50) (OV): 11.2 µg/mL; FAS (IC50) (purified human FAS): Neg
